Laboratory results taken from patent US8748496B2, “Methods of treatment of hyperuricemia and associated disease states” (Elan Pharmaceuticals, Inc., priority 2008, dated 2014).
Entries after “also recorded” stand apart in the source; their conditions may differ.

System: serum uric acid levels
Assay: Phase 1 open-label multiple dosing study, serum uric acid in healthy adult subjects
Type: in vivo, human
Conditions: 2000 mg BID oral 10 days; for uric acid, Mean: N=8
Method: A Phase 1 single site, open-label multiple dosing study evaluating a scyllo-inositol formulation was conducted in healthy adult subjects. Approximately 8 healthy male subjects received 2000 mg of scyllo-inositol twice daily (4-500 mg tablets orally administered twice a day) for 10 days. Blood samples were collected 12 hours prior to the first dose (day 0) and on days 6, 14, and 21. Scyllo-inositol 500 mg capsules were BSE/TSE-free soft gelatin, white, opaque capsules and no excipients were used in the finished product. Capsules were supplied in 60-mL, oblong, white pharmaceutical high density polyethylene (HDPE) bottles with white caps. Each 60-mL bottle contained 30 capsules of 500 mg strength scyllo-inositol.

[1] = Baseline (Day 0, before first dose)

O[C@H]1[C@H](O)[C@@H](O)[C@H](O)[C@@H](O)[C@@H]1O [scyllo-inositol, 1,2,3,4,5,6-cyclohexanehexyl, (1alpha,2beta,3alpha,4beta,5alpha,6beta)]
uric acid, Max [1]: 375 micromole per liter
uric acid, Median [1]: 300.4 micromole per liter
uric acid, Min [1]: 256 micromole per liter
uric acid, Mean [1]: 305.6 micromole per liter
uric acid, Max (Day 6): 250 micromole per liter
uric acid, Max Change from Baseline (Day 6): −12 micromole per liter
uric acid, Mean Change from Baseline (Day 6): −88.8 micromole per liter
uric acid, Median (Day 6): 226.0 micromole per liter
uric acid, Median Change from Baseline (Day 6): −72.6 micromole per liter
uric acid, Min (Day 6): 155 micromole per liter
uric acid, Min Change from Baseline (Day 6): −172 micromole per liter
uric acid, Mean (Day 6): 216.8 micromole per liter
uric acid, Max (Day 14): 274 micromole per liter
uric acid, Max Change from Baseline (Day 14): −12 micromole per liter
uric acid, Mean Change from Baseline (Day 14): −70.6 micromole per liter
uric acid, Median (Day 14): 237.9 micromole per liter
uric acid, Median Change from Baseline (Day 14): −74.4 micromole per liter
uric acid, Min (Day 14): 196 micromole per liter
uric acid, Min Change from Baseline (Day 14): −131 micromole per liter
uric acid, Mean (Day 14): 243.9 micromole per liter
uric acid, Max (Day 21): 333 micromole per liter
uric acid, Max Change from Baseline (Day 21): 65 micromole per liter
uric acid, Mean Change from Baseline (Day 21): −16.4 micromole per liter
uric acid, Median (Day 21): 291.5 micromole per liter
uric acid, Median Change from Baseline (Day 21): −23.8 micromole per liter
uric acid, Min (Day 21): 250 micromole per liter
uric acid, Min Change from Baseline (Day 21): −83 micromole per liter
uric acid after the end of treatment (Day 21, last follow-up visit): returned to Day 0 values by Day 21
uric acid, Mean (Day 21): 289.2 micromole per liter
serum uric acid levels following the start of treatment (all 8 subjects): decreased in all subjects; also recorded: a decrease in serum uric acid levels was observed in all subjects
mean uric acid levels versus normal range (during the study): remained within the normal range
